{"source": "patent US10064858B2", "about": "“Methods and compositions for treating bacterial infections with iron chelators” (THE UNITED STATES OF AMERICA, AS REPRESENTED BY THE …, priority 2011, dated 2018)", "key": {"[1]": {"test_system": "clinical isolates of A. baumannii", "assay": "MIC for clinical isolates in CAMHB media (Table 3)", "assay_type": "cell-based", "settings": "Acinetobacter baumannii", "protocol": "Individual MICs were determined following the microdilution method recommended by CLSI in cationic-adjusted Mueller-Hinton Broth (CAMHB), or M9 media. […] Tests were performed in triplicate. MIC of iron chelators were determined for noscomial ESKAPE pathogens."}, "[2]": {"test_system": "clinical isolates of A. baumannii", "assay": "MIC for clinical isolates in RPMI (low iron) media (Table 4)", "assay_type": "cell-based", "design": "key to MIC of Iron Chelators: NG = no growth in table 4", "settings": "for MIC: Acinetobacter baumannii", "protocol": "[…] […] Tests were performed in triplicate. MIC of iron chelators were determined for noscomial ESKAPE pathogens.\nFor a number of strains, the iron chelators produced no growth of bacteria (NG)."}, "[3]": {"test_system": "E. coli strain EC35218", "assay": "Growth (OD600) with chelator, Rifampin or both", "assay_type": "cell-based", "settings": "CAMHB", "protocol": "E. coli strain EC35218 was grown in CAMHB and challenged with 1.5×MIC compound 4 (Var) or 1.5×MIC Triapine (Tri) with or without 0.75×MIC Rifampin (Rif). Growth was estimated by absorbance at 600 nm (y-axis) at 0 or 24 hours."}, "[4]": {"test_system": "A. baumannii strain AB19606", "assay": "Growth (OD600) with chelator, Rifampin or both", "assay_type": "cell-based", "settings": "CAMHB", "protocol": "A. baumannii strain AB19606 was grown in CAMHB and challenged with 1.5×MIC compound 4 (Var) or 1.5×MIC Triapine (Tri) with or without 0.75×MIC Rifampin (Rif). Growth was estimated by absorbance at 600 nm (y-axis) at 0 or 24 hours."}, "[5]": {"assay": "Stability in aqueous solution", "assay_type": "physicochemical"}, "[6]": {"test_system": "A. baumannii, strain AB5711", "assay": "Growth curves (OD600) in CAMHB with compound 4", "assay_type": "cell-based", "from_the_text": "It should be noted that the inhibition occurred in a dose-responsive manner."}, "[7]": {"settings": "AB3638, read-out: MIC of Iron Chelators"}, "[8]": {"settings": "AB3785, read-out: MIC of Iron Chelators"}, "[9]": {"settings": "AB3806, read-out: MIC of Iron Chelators"}, "[10]": {"settings": "AB3917, read-out: MIC of Iron Chelators"}, "[11]": {"settings": "AB4025, read-out: MIC of Iron Chelators"}, "[12]": {"settings": "AB4026, read-out: MIC of Iron Chelators"}, "[13]": {"settings": "AB4027, read-out: MIC of Iron Chelators"}, "[14]": {"settings": "AB4052, read-out: MIC of Iron Chelators"}, "[15]": {"settings": "AB4269, read-out: MIC of Iron Chelators"}, "[16]": {"settings": "AB4448, read-out: MIC of Iron Chelators"}, "[17]": {"settings": "AB4456, read-out: MIC of Iron Chelators"}, "[18]": {"settings": "AB4490, read-out: MIC of Iron Chelators"}, "[19]": {"settings": "AB4498, read-out: MIC of Iron Chelators"}, "[20]": {"settings": "AB4795, read-out: MIC of Iron Chelators"}, "[21]": {"settings": "AB4857, read-out: MIC of Iron Chelators"}, "[22]": {"settings": "AB4878, read-out: MIC of Iron Chelators"}, "[23]": {"settings": "AB4932, read-out: MIC of Iron Chelators"}, "[24]": {"settings": "AB4957, read-out: MIC of Iron Chelators"}, "[25]": {"settings": "AB4991, read-out: MIC of Iron Chelators"}, "[26]": {"settings": "AB5001, read-out: MIC of Iron Chelators"}, "[27]": {"settings": "AB5075, read-out: MIC of Iron Chelators"}, "[28]": {"settings": "AB5197, read-out: MIC of Iron Chelators"}, "[29]": {"settings": "AB5256, read-out: MIC of Iron Chelators"}, "[30]": {"settings": "AB5674, read-out: MIC of Iron Chelators"}, "[31]": {"settings": "AB5711, read-out: MIC of Iron Chelators"}, "[32]": {"settings": "1.5×MIC chelator in combination with 0.75×MIC Rifampin"}, "[33]": {"settings": "alone: 1.5×MIC chelator or 0.75×MIC Rifampin"}}}
{"smiles": "OCCN1CCN(CCc2ccc(O)c3ncccc23)CC1", "note": "[Compound 4, 5-(2-(4-(2-hydroxyethyl)piperazin-1-yl)ethyl)-8-quinolinol]", "values": [{"measurement": "MIC", "setting": "[1]; AB967, read-out: MIC of Iron Chelators", "value": 500, "unit": "µg/mL"}, {"measurement": "MIC", "setting": "[1]; AB2828, read-out: MIC of Iron Chelators", "value": 500, "unit": "µg/mL"}, {"measurement": "MIC", "setting": "[1]; AB3340, read-out: MIC of Iron Chelators", "value": 500, "unit": "µg/mL"}, {"measurement": "MIC", "setting": "[1]; AB3560, read-out: MIC of Iron Chelators", "value": 500, "unit": "µg/mL"}, {"measurement": "MIC", "setting": "[1]; [7]", "value": 500, "unit": "µg/mL"}, {"measurement": "MIC", "setting": "[1]; [8]", "value": 500, "unit": "µg/mL"}, {"measurement": "MIC", "setting": "[1]; [9]", "value": 1000, "unit": "µg/mL"}, {"measurement": "MIC", "setting": "[1]; [10]", "value": 500, "unit": "µg/mL"}, {"measurement": "MIC", "setting": "[1]; AB3927, read-out: MIC of Iron Chelators", "value": 500, "unit": "µg/mL"}, {"measurement": "MIC", "setting": "[1]; [11]", "value": 500, "unit": "µg/mL"}, {"measurement": "MIC", "setting": "[1]; [12]", "value": 500, "unit": "µg/mL"}, {"measurement": "MIC", "setting": "[1]; [13]", "value": 500, "unit": "µg/mL"}, {"measurement": "MIC", "setting": "[1]; [14]", "value": 1000, "unit": "µg/mL"}, {"measurement": "MIC", "setting": "[1]; [15]", "value": 500, "unit": "µg/mL"}, {"measurement": "MIC", "setting": "[1]; [16]", "value": 500, "unit": "µg/mL"}, {"measurement": "MIC", "setting": "[1]; [17]", "value": 500, "unit": "µg/mL"}, {"measurement": "MIC", "setting": "[1]; [18]", "value": 500, "unit": "µg/mL"}, {"measurement": "MIC", "setting": "[1]; [19]", "value": 500, "unit": "µg/mL"}, {"measurement": "MIC", "setting": "[1]; [20]", "value": 500, "unit": "µg/mL"}, {"measurement": "MIC", "setting": "[1]; [21]", "value": 500, "unit": "µg/mL"}, {"measurement": "MIC", "setting": "[1]; [22]", "value": 500, "unit": "µg/mL"}, {"measurement": "MIC", "setting": "[1]; [23]", "value": 500, "unit": "µg/mL"}, {"measurement": "MIC", "setting": "[1]; [24]", "value": 500, "unit": "µg/mL"}, {"measurement": "MIC", "setting": "[1]; [25]", "value": 500, "unit": "µg/mL"}, {"measurement": "MIC", "setting": "[1]; [26]", "value": 500, "unit": "µg/mL"}, {"measurement": "MIC", "setting": "[1]; [27]", "value": 500, "unit": "µg/mL"}, {"measurement": "MIC", "setting": "[1]; [28]", "value": 500, "unit": "µg/mL"}, {"measurement": "MIC", "setting": "[1]; [29]", "value": 500, "unit": "µg/mL"}, {"measurement": "MIC", "setting": "[1]; [30]", "value": 500, "unit": "µg/mL"}, {"measurement": "MIC", "setting": "[1]; [31]", "value": 500, "unit": "µg/mL"}, {"measurement": "MIC of Iron Chelators", "setting": "[2]; AB967", "value": "NG"}, {"measurement": "MIC of Iron Chelators", "setting": "[2]; AB2828", "value": "NG"}, {"measurement": "MIC of Iron Chelators", "setting": "[2]; AB3340", "value": "NG"}, {"measurement": "MIC of Iron Chelators", "setting": "[2]; AB3560", "value": "NG"}, {"measurement": "MIC of Iron Chelators", "setting": "[2]; AB3927", "value": "NG"}, {"measurement": "MIC", "setting": "[2]; [7]", "value": 64, "unit": "µg/mL"}, {"measurement": "MIC", "setting": "[2]; [8]", "value": 32, "unit": "µg/mL"}, {"measurement": "MIC", "setting": "[2]; [9]", "value": 32, "unit": "µg/mL"}, {"measurement": "MIC", "setting": "[2]; [10]", "value": 32, "unit": "µg/mL"}, {"measurement": "MIC", "setting": "[2]; [11]", "value": 32, "unit": "µg/mL"}, {"measurement": "MIC", "setting": "[2]; [12]", "value": 32, "unit": "µg/mL"}, {"measurement": "MIC", "setting": "[2]; [13]", "value": 32, "unit": "µg/mL"}, {"measurement": "MIC", "setting": "[2]; [14]", "value": 64, "unit": "µg/mL"}, {"measurement": "MIC", "setting": "[2]; [15]", "value": 32, "unit": "µg/mL"}, {"measurement": "MIC", "setting": "[2]; [16]", "value": 64, "unit": "µg/mL"}, {"measurement": "MIC", "setting": "[2]; [17]", "value": 32, "unit": "µg/mL"}, {"measurement": "MIC", "setting": "[2]; [18]", "value": 32, "unit": "µg/mL"}, {"measurement": "MIC", "setting": "[2]; [19]", "value": 64, "unit": "µg/mL"}, {"measurement": "MIC", "setting": "[2]; [20]", "value": 32, "unit": "µg/mL"}, {"measurement": "MIC", "setting": "[2]; [21]", "value": 64, "unit": "µg/mL"}, {"measurement": "MIC", "setting": "[2]; [22]", "value": 64, "unit": "µg/mL"}, {"measurement": "MIC", "setting": "[2]; [23]", "value": 125, "unit": "µg/mL"}, {"measurement": "MIC", "setting": "[2]; [24]", "value": 125, "unit": "µg/mL"}, {"measurement": "MIC", "setting": "[2]; [25]", "value": 8, "unit": "µg/mL"}, {"measurement": "MIC", "setting": "[2]; [26]", "value": 32, "unit": "µg/mL"}, {"measurement": "MIC", "setting": "[2]; [27]", "value": 64, "unit": "µg/mL"}, {"measurement": "MIC", "setting": "[2]; [28]", "value": 32, "unit": "µg/mL"}, {"measurement": "MIC", "setting": "[2]; [29]", "value": 125, "unit": "µg/mL"}, {"measurement": "MIC", "setting": "[2]; [30]", "value": 32, "unit": "µg/mL"}, {"measurement": "MIC", "setting": "[2]; [31]", "value": 64, "unit": "µg/mL"}, {"measurement": "reduction of bacteria (absorbance at 600 nm, 24 hours)", "setting": "[3]; [32]", "value": "significant reduction in bacteria"}, {"measurement": "reduction of bacteria (absorbance at 600 nm, 24 hours)", "setting": "[3]; [33]", "value": "did not result in a reduction of bacteria"}, {"measurement": "reduction of bacteria (absorbance at 600 nm, 24 hours)", "setting": "[4]; [32]", "value": "significant reduction in bacteria"}, {"measurement": "reduction of bacteria (absorbance at 600 nm, 24 hours)", "setting": "[4]; [33]", "value": "no reduction of bacteria"}, {"measurement": "stability in aqueous solution", "setting": "[5]", "value": "highly stable"}, {"measurement": "OD600 (growth curves)", "setting": "[6]", "value": "dramatically reduced"}]}
